{
  "source": "paper PMC7014401",
  "key": {"[1]": {"assay": "On-DNA RCM, Grubbs III catalyst A (10 eq), MgCl2 20000 eq, NH4Cl 12000 eq (Alternative #1)", "details": "H2O:EtOH:MeOAc 5:4:1, 0.02 mM, 25.0 °C, 0.5 h"}, "[2]": {"assay": "On-DNA RCM (terminal diene to cyclic alkene), catalyst B (Grubbs-III 2,2'-biphenyldiamine derivative, 10 eq), MgCl2 20000 eq, NH4Cl 12000 eq", "details": "H2O:EtOH:MeOAc 5:4:1, 0.02 mM, 25.0 °C, 0.5 h"}, "[3]": {"assay": "On-DNA RCM, Grubbs III catalyst A (10 eq) + 2,2'-biphenyldiamine C (20 eq), MgCl2 20000 eq, NH4Cl 12000 eq (Alternative #2)", "details": "H2O:EtOH:MeOAc 5:4:1, 0.02 mM, 25.0 °C, 0.5 h"}, "[4]": {"assay": "On-DNA RCM, Grubbs III catalyst A (150 eq), MgCl2 8000 eq (Lu et al. conditions, heterogeneous, rerun here)", "details": "H2O:tBuOH 3:2, 0.09 mM, 25.0 °C, 1.0 h"}, "[5]": {"details": "from C=CCCCC(=O)NCCCC[C@@H](NC(=O)COCCOCCNC(=O)CCCC=C)C(=O)NC, 26-membered ring"}, "[6]": {"details": "from C=CCCCC(=O)N(CC=C)CC(=O)NC, 8-membered ring"}, "[7]": {"details": "from C=CCCC[C@](C)(NC(=O)[C@H](CCCNC(=N)N)NC(=O)[C@H](Cc1c[nH]cn1)NC(=O)[C@H](CC(C)C)NC(=O)[C@](C)(CCCC=C)NC(=O)[C@H](CCCCN)NC(=O)[C@H](CCCNC(=N)N)NC(=O)[C@H](CCCNC(=N)N)NC(=O)[C@H](CCCNC(=N)N)NC(=O)[C@H](CCCNC(=N)N)NC(C)=O)C(=O)N[C@@H](CC(C)C)C(=O)N[C@@H](CCC(N)=O)C(=O)N[C@@H](CC(=O)O)C(=O)N[C@@H](CCc1cn(CC(=O)NC)nn1)C(N)=O, 21-membered ring"}, "[8]": {"details": "from C=CCCCC(=O)NCCCC[C@H](NC(=O)CCCC=C)C(=O)NC, 17-membered ring"}},
  "data": [
    {"compound": "CNC(=O)[C@H]1CCCCNC(=O)CCCC=CCCCC(=O)NCCOCCOCC(=O)N1", "values": [
      {"measurement": "ring closure, conversion by HPLC (% conversion (LC/MS deconvolution))", "setting": "[1]; [5]", "result": 58},
      {"measurement": "ring closure, conversion by HPLC (% conversion (LC/MS deconvolution))", "setting": "[2]; [5]", "result": 70},
      {"measurement": "ring closure, conversion by HPLC (% conversion (LC/MS deconvolution))", "setting": "[3]; [5]", "result": 61},
      {"measurement": "ring closure, conversion by HPLC (% conversion (LC/MS deconvolution))", "setting": "[4]; [5]", "result": 23}
    ]},
    {"compound": "CNC(=O)CCOCCOCCOCCOCCn1cc(CC[C@H](NC(=O)[C@H](CC(=O)O)NC(=O)[C@H](CCC(N)=O)NC(=O)[C@H](CC(C)C)NC(=O)[C@]2(C)CCCC=CCCC[C@](C)(NC(=O)[C@H](CCCCN)NC(=O)[C@H](CCCNC(=N)N)NC(=O)[C@H](CCCNC(=N)N)NC(=O)[C@H](CCCNC(=N)N)NC(=O)[C@H](CCCNC(=N)N)NC(C)=O)C(=O)N[C@@H](CC(C)C)C(=O)N[C@@H](Cc3c[nH]cn3)C(=O)N[C@@H](CCCNC(=N)N)C(=O)N2)C(N)=O)nn1", "values": [
      {"measurement": "ring closure, conversion by HPLC (% conversion (LC/MS deconvolution))", "setting": "[2]; from C=CCCC[C@](C)(NC(=O)[C@H](CCCNC(=N)N)NC(=O)[C@H](Cc1c[nH]cn1)NC(=O)[C@H](CC(C)C)NC(=O)[C@](C)(CCCC=C)NC(=O)[C@H](CCCCN)NC(=O)[C@H](CCCNC(=N)N)NC(=O)[C@H](CCCNC(=N)N)NC(=O)[C@H](CCCNC(=N)N)NC(=O)[C@H](CCCNC(=N)N)NC(C)=O)C(=O)N[C@@H](CC(C)C)C(=O)N[C@@H](CCC(N)=O)C(=O)N[C@@H](CC(=O)O)C(=O)N[C@@H](CCc1cn(CCOCCOCCOCCOCCC(=O)NC)nn1)C(N)=O, 21-membered ring", "result": 65}
    ]},
    {"compound": "CNC(=O)CN1CC=CCCCC1=O", "note": "[5-hexenoyl-(N-allyl)Gly-NH-DNA]", "values": [
      {"measurement": "ring closure, conversion by HPLC (% conversion (LC/MS deconvolution))", "setting": "[1]; [6]", "result": 33},
      {"measurement": "ring closure, conversion by HPLC (% conversion (LC/MS deconvolution))", "setting": "[2]; [6]", "result": 62},
      {"measurement": "ring closure, conversion by HPLC (% conversion (LC/MS deconvolution))", "setting": "[3]; [6]", "result": 73},
      {"measurement": "ring closure, conversion by HPLC (% conversion (LC/MS deconvolution))", "setting": "[4]; [6]", "result": 65}
    ]},
    {"compound": "CNC(=O)Cn1cc(CC[C@H](NC(=O)[C@H](CC(=O)O)NC(=O)[C@H](CCC(N)=O)NC(=O)[C@H](CC(C)C)NC(=O)[C@]2(C)CCCC=CCCC[C@](C)(NC(=O)[C@H](CCCCN)NC(=O)[C@H](CCCNC(=N)N)NC(=O)[C@H](CCCNC(=N)N)NC(=O)[C@H](CCCNC(=N)N)NC(=O)[C@H](CCCNC(=N)N)NC(C)=O)C(=O)N[C@@H](CC(C)C)C(=O)N[C@@H](Cc3c[nH]cn3)C(=O)N[C@@H](CCCNC(=N)N)C(=O)N2)C(N)=O)nn1", "values": [
      {"measurement": "ring closure, conversion by HPLC (% conversion (LC/MS deconvolution))", "setting": "[2]; [7]", "result": 52},
      {"measurement": "ring closure, conversion by HPLC (% conversion (LC/MS deconvolution))", "setting": "[4]; [7]", "result": 22}
    ]},
    {"compound": "CNC(=O)[C@@H]1CCCCNC(=O)CCCC=CCCCC(=O)N1", "note": "[5-hexenoyl-Lys(5-hexenoyl)-NH-DNA (56-bp dsDNA)]", "values": [
      {"measurement": "ring closure, conversion by HPLC (% conversion (LC/MS deconvolution))", "setting": "[2]; [8]", "result": 69}
    ]},
    {"compound": "CNC(=O)[C@@H]1CCCCNC(=O)CCCC=CCCCC(=O)N1", "note": "[5-hexenoyl-Lys(5-hexenoyl)-NH-DNA]", "values": [
      {"measurement": "ring closure, conversion by HPLC (% conversion (LC/MS deconvolution))", "setting": "[1]; [8]", "result": 72},
      {"measurement": "ring closure, conversion by HPLC (% conversion (LC/MS deconvolution))", "setting": "[2]; [8]", "result": 78},
      {"measurement": "ring closure, conversion by HPLC (% conversion (LC/MS deconvolution))", "setting": "[3]; [8]", "result": 75},
      {"measurement": "ring closure, conversion by HPLC (% conversion (LC/MS deconvolution))", "setting": "[4]; [8]", "result": 70}
    ]},
    {"compound": "CNC(=O)[C@@H]1CCCCNC(=O)CCCC=CCC(=O)N[C@H](c2cccnc2)CC(=O)N1", "values": [
      {"measurement": "ring closure, conversion by HPLC (% conversion (LC/MS deconvolution))", "setting": "[4]; from C=CCCCC(=O)NCCCC[C@H](NC(=O)C[C@H](NC(=O)CC=C)c1cccnc1)C(=O)NC, 19-membered ring", "result": 0}
    ]}
  ]
}
